Legend:
Plasmopara viticola = Plasmopara viticola (downy mildew of grapevine), grapevine leaf disk assay, preventive; type: in vivo; settings: foliar, 168 h, 200 ppm, grapevine leaf disks, assessed seven days after inoculation, read-out: control of fungal infection, Plasmopara viticola
Phytophthora infestans = assay: whole plant or invertebrate; type: in vivo; settings: in Solanum lycopersicum, foliar, 96 h, read-out: control of fungal infection, Phytophthora infestans
[1] = test system: Erysiphe graminis f.sp. tritici; assay: Erysiphe graminis f.sp. tritici (wheat powdery mildew), wheat leaf segment assay, preventive; type: in vivo; settings: Blumeria graminis, foliar, 96 h; 200 ppm; wheat leaf segments; assessed four days after inoculation; read-out: control of fungal infection, Etysiphe graminis f.sp. tritici
Septoria nodorum = Septoria nodorum (wheat glume blotch), wheat leaf segment assay, preventive; type: in vivo; settings: Parastagonospora nodorum, foliar, 96 h; 200 ppm; wheat leaf segments; assessed four days after inoculation; read-out: control of fungal infection, Septoria nodorum
Septoria tritici = Septoria tritici (leaf blotch), liquid culture growth inhibition in nutrient broth; type: cell-based; settings: Zymoseptoria tritici; 200 ppm; PDB broth, 24 C; inhibition of growth determined photometrically after 72 hrs; read-out: control of fungal infection, Septoria tritici
Pythium ultimum = Pythium ultimum (Damping off), liquid culture growth inhibition in potato dextrose broth; type: cell-based; settings: Globisporangium ultimum; 20 ppm; potato dextrose broth, 24° C.; inhibition of growth determined photometrically after 48 hours; read-out: control of fungal infection, Pythium ultimum
Fusarium culmorum = Fusarium culmorum (root rot), liquid culture growth inhibition in nutrient broth; type: cell-based; settings: PDB broth, 24 C, inhibition of growth determined photometrically after 48 hrs, read-out: control of fungal infection, Fusarium culmorum
Description: Mycelia fragments or conidia suspensions of a fungus, prepared either freshly from liquid cultures of the fungus or from cryogenic storage, are directly mixed into nutrient broth. DMSO solutions of the test compound (max. 10 mg/ml) is diluted with 0.025% Tween20 by factor 50 and 10 μl of this solution is pipetted into a microtiter plate (96-well format) and the nutrient broth containing the fungal spores/mycelia fragments is then added to give an end concentration of the tested compound. The test plates are incubated at 24° C. and 96% rH in the dark. The inhibition of fungal growth is determined photometrically after 2-6 days and antifungal activity is calculated.
Fusarium culmorum (root rot): Conidia of the fungus from cryogenic storage were directly mixed into nutrient broth (PDB potato dextrose broth). After placing a (DMSO) solution of the test compounds into a microtiter plate (96-well format) the nutrient broth containing the fungal spores was added. The test plates were incubated at 24 C and the inhibition of growth was determined photometrically after 48 hrs.

Botrytis cinerea = Botrytis cinerea (grey mould), bean leaf disk assay, preventive; type: in vivo; settings: foliar, 96 h, 200 ppm, bean leaf disks, assessed four days after inoculation, read-out: control of fungal infection, Botrytis cinerea

C#CCON=CC(C)(C)NC(=O)C(Oc1ccc2ncc(Br)cc2c1)SC (stereo not drawn) [Compound No. 17, 2-(3-Bromo-quinolin-6-yloxy)-N-(1,1-dimethyl-2-prop-2-ynyloxyimino-ethyl)-2-methylsulfanyl-acetamide]
≥ 60%: pest or weed control at 200 ppm (Plasmopara viticola) | pest or weed control at 200 ppm (Phytophthora infestans) | pest or weed control at 200 ppm [1] | pest or weed control at 200 ppm (Septoria nodorum) | inhibition of growth at 200 ppm (Septoria tritici) | inhibition of growth at 20 ppm (Pythium ultimum)

CSC(Oc1cc(C)c2ncc(Br)cc2c1)C(=O)NC(C)(C)C=NOc1ccccc1 (stereo not drawn) [Compound No. 23, 2-(3-Bromo-8-methyl-quinolin-6-yloxy)-N-(1,1-dimethyl-2-phenoxyimino-ethyl)-2-methylsulfanyl-acetamide]
≥ 60%: pest or weed control at 200 ppm (Plasmopara viticola) | pest or weed control at 200 ppm (Phytophthora infestans) | pest or weed control at 200 ppm [1] | pest or weed control at 200 ppm (Septoria nodorum) | inhibition of growth at 200 ppm (Fusarium culmorum) | inhibition of growth at 20 ppm (Pythium ultimum)

CON=CC(C)(C)NC(=O)C(Oc1cc(C)c2ncc(Br)cc2c1)SC (stereo not drawn) [Compound No. 26, 2-(3-Bromo-8-methyl-quinolin-6-yloxy)-N-(2-methoxyimino-1,1-dimethyl-ethyl)-2-methylsulfanyl-acetamide]
≥ 60%: pest or weed control at 200 ppm (Phytophthora infestans) | pest or weed control at 200 ppm [1] | pest or weed control at 200 ppm (Septoria nodorum) | inhibition of growth at 200 ppm (Septoria tritici) | inhibition of growth at 200 ppm (Fusarium culmorum)

C#CCON=CC(C)(C)NC(=O)C(Oc1cc(C)c2ncc(Br)cc2c1)SC (stereo not drawn) [Compound No. 29, 2-(3-Bromo-8-methyl-quinolin-6-yloxy)-N-(1,1-dimethyl-2-prop-2-ynyloxyimino-ethyl)-2-methylsulfanyl-acetamide]
≥ 60%: pest or weed control at 200 ppm (Plasmopara viticola) | pest or weed control at 200 ppm (Phytophthora infestans) | pest or weed control at 200 ppm [1] | pest or weed control at 200 ppm (Septoria nodorum) | inhibition of growth at 200 ppm (Fusarium culmorum) | inhibition of growth at 20 ppm (Pythium ultimum)

CCCCON=CCC(C)(C)NC(=O)C(Oc1cc(C)c2ncc(I)cc2c1)SC (stereo not drawn) [Compound No. 39, N-(3-Butoxyimino-1,1-dimethyl-propyl)-2-(3-iodo-8-methyl-quinolin-6-yloxy)-2-methylsulfanylacetamide]
≥ 60%: pest or weed control at 200 ppm (Botrytis cinerea) | inhibition of growth at 200 ppm (Septoria tritici)

CON=CCC(C)NC(=O)C(Oc1ccc2ncc(I)cc2c1)SC (stereo not drawn) [Compound No. 48, 2-(3-Iodo-quinolin-6-yloxy)-N-(3-methoxyimino-1-methyl-propyl)-2-methylsulfanyl-acetamide]
≥ 60%: pest or weed control at 200 ppm [1] | pest or weed control at 200 ppm (Septoria nodorum) | inhibition of growth at 200 ppm (Septoria tritici) | inhibition of growth at 200 ppm (Fusarium culmorum)

C=CCON=CC(C)(C)NC(=O)C(Oc1ccc2ncc(I)cc2c1)SC (stereo not drawn) [Compound No. 52, N-(2-Allyloxyimino-1,1-dimethyl-ethyl)-2-(3-iodo-quinolin-6-yloxy)-2-methylsulfanyl-acetamide]
≥ 60%: pest or weed control at 200 ppm (Plasmopara viticola) | pest or weed control at 200 ppm (Phytophthora infestans) | inhibition of growth at 200 ppm (Fusarium culmorum) | inhibition of growth at 20 ppm (Pythium ultimum)

CON=CCC(C)NC(=O)C(Oc1cc(C)c2ncc(I)cc2c1)SC (stereo not drawn) [Compound No. 105, 2-(3-Iodo-8-methyl-quinolin-6-yloxy)-N-(3-methoxyimino-1-methyl-propyl)-2-methylsulfanyl-acetamide]
≥ 60%: pest or weed control at 200 ppm [1] | inhibition of growth at 200 ppm (Septoria tritici) | inhibition of growth at 200 ppm (Fusarium culmorum) | inhibition of growth at 20 ppm (Pythium ultimum)

C#Cc1cnc2c(C)cc(OC(SC)C(=O)NC(C)(C)C=NOC)cc2c1 (stereo not drawn) [Compound No. 112, 2-(3-Ethynyl-8-methyl-quinolin-6-yloxy)-N-(2-methoxyimino-1,1-dimethyl-ethyl)-2-methylsulfanyl-acetamide]
≥ 60%: pest or weed control at 200 ppm (Plasmopara viticola) | pest or weed control at 200 ppm (Phytophthora infestans) | pest or weed control at 200 ppm (Septoria nodorum) | inhibition of growth at 200 ppm (Fusarium culmorum) | inhibition of growth at 20 ppm (Pythium ultimum)

C#Cc1cnc2c(C)cc(OC(SC)C(=O)NC(C)(C)C=NOCC)cc2c1 (stereo not drawn) [Compound No. 113, N-(2-Ethoxyimino-1,1-dimethyl-ethyl)-2-(3-Ethynyl-8-methyl-quinolin-6-yloxy)-2-methylsulfanyl-acetamide]
≥ 60%: pest or weed control at 200 ppm (Plasmopara viticola) | pest or weed control at 200 ppm (Phytophthora infestans) | pest or weed control at 200 ppm (Septoria nodorum) | inhibition of growth at 200 ppm (Fusarium culmorum) | inhibition of growth at 20 ppm (Pythium ultimum)

C#Cc1cnc2c(C)cc(OC(SC)C(=O)NC(C)(C)C=NOCC=C)cc2c1 (stereo not drawn) [Compound No. 114, N-(2-Allyloxyimino-1,1-dimethyl-ethyl)-2-(3-Ethynyl-8-methyl-quinolin-6-yloxy)-2-methylsulfanyl-acetamide]
≥ 60%: pest or weed control at 200 ppm (Plasmopara viticola) | pest or weed control at 200 ppm (Phytophthora infestans) | pest or weed control at 200 ppm [1] | pest or weed control at 200 ppm (Septoria nodorum) | inhibition of growth at 200 ppm (Fusarium culmorum)

C#Cc1cnc2c(Cl)cc(OC(SC)C(=O)NC(C)(C)C=NOC)cc2c1 (stereo not drawn) [Compound No. 115, 2-(8-Chloro-3-ethynyl-quinolin-6-yloxy)-N-(2-methoxyimino-1,1-dimethyl-ethyl)-2-methylsulfanyl-acetamide]
≥ 60%: pest or weed control at 200 ppm (Plasmopara viticola) | pest or weed control at 200 ppm (Phytophthora infestans) | pest or weed control at 200 ppm [1] | pest or weed control at 200 ppm (Septoria nodorum) | inhibition of growth at 200 ppm (Fusarium culmorum) | inhibition of growth at 20 ppm (Pythium ultimum)

CON=C(c1ccccc1)C(C)(C)NC(=O)C(Oc1ccc2ncc(Br)cc2c1)SC (stereo not drawn) [Compound No. 130, 2-(3-Bromo-quinolin-6-yloxy)-N-{2-[(E or Z)-methoxyimino]-1,1-dimethyl-2-phenyl-ethyl}-2-methylsulfanyl-acetamide]
≥ 60%: pest or weed control at 200 ppm (Plasmopara viticola) | pest or weed control at 200 ppm (Phytophthora infestans) | pest or weed control at 200 ppm [1] | pest or weed control at 200 ppm (Septoria nodorum) | inhibition of growth at 200 ppm (Septoria tritici) | inhibition of growth at 20 ppm (Pythium ultimum)

C#Cc1cnc2ccc(OC(CC)C(=O)NC(C)(C)C=NOC)cc2c1 (stereo not drawn) [Compound No. 131, 2-(3-Ethynyl-quinolin-6-yloxy)-N-(2-methoxyimino-1,1-dimethyl-ethyl)-butyramide]
≥ 60%: pest or weed control at 200 ppm (Plasmopara viticola) | pest or weed control at 200 ppm (Phytophthora infestans) | pest or weed control at 200 ppm [1] | pest or weed control at 200 ppm (Septoria nodorum) | inhibition of growth at 200 ppm (Septoria tritici) | inhibition of growth at 20 ppm (Pythium ultimum)

C#Cc1cnc2c(C)cc(OC(CC)C(=O)NC(C)(C)C=NOC)cc2c1 (stereo not drawn) [Compound No. 132, 2-(3-Ethynyl-8-methyl-quinolin-6-yloxy)-N-(2-methoxyimino-1,1-dimethyl-ethyl)-butyramide]
≥ 60%: pest or weed control at 200 ppm (Plasmopara viticola) | pest or weed control at 200 ppm (Phytophthora infestans) | pest or weed control at 200 ppm [1] | pest or weed control at 200 ppm (Septoria nodorum) | inhibition of growth at 200 ppm (Septoria tritici) | inhibition of growth at 20 ppm (Pythium ultimum)

CSC(Oc1ccc2ncc(I)cc2c1)C(=O)NC(C)(C)C=NO (stereo not drawn) [Compound No. 153, N-(2-Hydroxyimino-1,1-dimethyl-ethyl)-2-(3-iodo-quinolin-6-yloxy)-2-methylsulfanyl-acetamide]
≥ 60%: pest or weed control at 200 ppm (Plasmopara viticola) | pest or weed control at 200 ppm (Phytophthora infestans) | pest or weed control at 200 ppm [1] | inhibition of growth at 200 ppm (Septoria tritici) | inhibition of growth at 200 ppm (Fusarium culmorum) | inhibition of growth at 20 ppm (Pythium ultimum)

CCC(Oc1cc2cc(Br)cnc2cc1F)C(=O)NC(C)(C)C=NOC (stereo not drawn) [Compound No. 154, 2-(3-Bromo-7-fluoro-quinolin-6-yloxy)-N-(2-methoxyimino-1,1-dimethyl-ethyl)-butyramide]
≥ 60%: pest or weed control at 200 ppm (Plasmopara viticola) | pest or weed control at 200 ppm (Phytophthora infestans) | pest or weed control at 200 ppm [1] | pest or weed control at 200 ppm (Septoria nodorum) | inhibition of growth at 200 ppm (Septoria tritici)

From patent US8507509B2, “Saturated and insaturated bi- or tricyclic aryloxyacetamine derivatives and their use as fungicides” (Syngenta Crop Protection LLC, priority 2007, dated 2013)
